The target in data set [1] is human hematopoietic synthase (Homo sapiens, UniProt O60760). Kind of data set: Hematopoietic synthase inhibitory activity (Experiment 1). Particulars: [14C] prostaglandin H2 10 μM, preincubated at 25° C. for 5 minutes, 1 minute reaction; read-out: Concentration of Pharmaceutical Compound Required to Inhibit 50% of Hematopoietic Synthase. The format is biochemical. How it is done:
Experiment 1 was carried out according to the method of Urade, Y. et al. (J. Biol. Chem. 262, 3820-3825, (1987)). More specifically, the reaction mixture (49 μL); 100 mM Tris-HCl (pH 8.0), 1 mM reduced glutathione, 0.1 mg/mL γ-globulin, and human hematopoietic synthase (quantum sufficient), and a test compound (final concentration: 0.01-100 μM) were preincubated at 25° C. for 5 minutes. In place of the test compound, a DMSO solution (final concentration: 1%) was used in the solvent control group (Control Group). Subsequently, 1 μL of [^14C] prostaglandin H2 (final concentration: 10 μM) was added to start the reaction. One minute after the start of the reaction, 250 μL of a reaction stopper solution (diethylether/methanol/1M citric acid (30/4/1) cooled to −20° C. was added to stop the reaction.
Thereafter, 50 μL of the upper layer portion (organic solvent phase) was applied to a TLC plate and developed at −20° C. for 45 minutes (developer: diethylether/methanol/acetic acid (capacity ratio=90/2/1)). After drying the plate, the plate was exposed to an imaging plate for 1 to 24 hours, and the radioactivity corresponding to prostaglandin D2 was analyzed using an image analyzer (product of FUJIFILM Corporation). The area (%) occupied by the prostaglandin D2 band per lane was calculated, and the concentration of the test compound required to inhibit 50% of the hematopoietic synthase (IC50 value) was calculated by comparison with the Control group in each experiment.

Chain of human hematopoietic synthase (O60760 whole entry): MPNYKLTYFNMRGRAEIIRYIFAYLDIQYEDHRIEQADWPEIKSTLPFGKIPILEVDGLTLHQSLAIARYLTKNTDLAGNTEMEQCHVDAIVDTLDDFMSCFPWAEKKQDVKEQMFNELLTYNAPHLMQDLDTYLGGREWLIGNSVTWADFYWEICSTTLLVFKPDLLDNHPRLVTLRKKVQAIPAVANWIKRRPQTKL

As to `Cc1[nH]c(C(=O)N2CCCC2)c(C)c1-c1nc2cc(Oc3ccccc3)ccc2[nH]1` [Compound 70, ((4-(5-Phenoxybenzimidazole-2-yl)-3,5-dimethylpyrrol-2-yl)-2-carbonyl)pyrrolidine], the melting point (as a rule, the temperature of the solid-liquid transition) was in the range of 251 to 254 °C. Moreover, the IC50 in data set [1] was determined as 614 nM.

`Cc1coc(C)c1-c1nc2cc(C(=O)c3ccccc3)ccc2[nH]1` [Compound 1, 5-Benzoyl-2-(2,4-dimethylfuran-3-yl)-benzimidazole]: the melting point lay in the range of 203 to 208 °C. For the same molecule, the IC50 in data set [1] amounted to 796 nM.

Take `Cc1[nH]c(C(=O)O)c(C)c1-c1nc2cc(Oc3ccccc3)ccc2[nH]1` [Compound 69, 4-(5-Phenoxybenzimidazole-2-yl)-3,5-dimethylpyrrole-2-carboxylic acid]: the melting point was 167 to 172 °C (dec.). Moreover, the IC50 in data set [1] was found to be 491 nM.

The molecule `Cc1oc(C(N)=O)c(C)c1-c1nc2cc(C(=O)c3ccccc3)ccc2[nH]1` [Compound 2, 4-(5-Benzoylbenzimidazol-2-yl)-3,5-dimethylfuran-2-carboxamide] came in with a melting point of 143 to 146 °C. Besides, in data set [1], the IC50 amounted to 274 nM.

Take `Cc1[nH]c(C(=O)NCO)c(C)c1-c1nc2cc(C(=O)c3ccccc3)ccc2[nH]1` [Compound 67, (N-Hydroxymethyl)-4-(5-benzoylbenzimidazol-2-yl)-3,5-dimethylpyrrole-2-carboxamide]: the melting point lay in the range of 196 to 210 °C. The IC50 in data set [1] worked out at 109 nM.

`Cc1cc(C)c(-c2nc3cc(C(=O)c4ccccc4)ccc3[nH]2)[nH]1` [Compound 52, 5-Benzoyl-2-(3,5-dimethylpyrrol-2-yl)-benzimidazole] came in with a melting point of 225 to 229 °C. In addition, the IC50 in data set [1] was determined as 4800 nM.

In turn, `Cc1[nH]c(C(=O)NCCC(=O)O)c(C)c1-c1nc2cc(C(=O)c3ccccc3)ccc2[nH]1` [Compound 21, N-(2-Carboxyethyl)-4-(5-benzoylbenzimidazol-2-yl)-3,5-dimethylpyrrole-2-carboxamide] yielded a melting point of 256 to 258 °C. In data set [1], the IC50 was 304 nM.

For `O=C(c1ccccc1)c1ccc2nc(-c3ccc[nH]3)[nH]c2c1` [Compound 51, 5-Benzoyl-2-(pyrrol-2-yl)-benzimidazole], the melting point lay within 128 to 133 °C.

In turn, `Cc1[nH]c(C(=O)N2CCC(C(=O)O)CC2)c(C)c1-c1nc2cc(C(=O)c3ccccc3)ccc2[nH]1` [Compound 45, ((4-(5-Benzoylbenzimidazol-2-yl)-3,5-dimethylpyrrol-2-yl)-carbonyl)piperidine-4-carboxylic acid] yielded a melting point of 267 to 271 °C. The IC50 in data set [1] was found to be 643 nM.

Turning to `Cc1[nH]c(C=O)c(C)c1-c1nc2cc(C(=O)c3ccccc3)ccc2[nH]1` [Compound 8, 2-(2-Formyl-3,5-dimethyl-pyrrol-4-yl)-5-benzoylbenzimidazole], the melting point fell in the range of 253 to 255 °C.

`Cc1[nH]c(C(N)=O)c(C)c1-c1nc2cc(C(=O)c3ccccc3)ccc2[nH]1` [Compound 12, 4-(5-Benzoylbenzimidazol-2-yl)-3,5-dimethylpyrrole-2-carboxamide]: the IC50 in data set [1] is 100 nM.

Consider `Cc1[nH]c(C#N)c(C)c1-c1nc2cc(Oc3ccccc3)ccc2[nH]1` [Compound 75, 2-(2-Cyano-3,5-dimethylpyrrol-4-yl)-5-phenoxybenzimidazole], for which the IC50 in data set [1] worked out at 218 nM.

Take `c1ccc(C(OC2CCN(CCCc3nnn[nH]3)CC2)c2ccccc2)cc1` [HQL-79, 4-benzhydryloxy-1-((3-(1H-tetrazol-5-yl)-propyl))piperidine, reference compound]: the IC50 in data set [1] came out at 24400 nM.

On to `CONC(=O)c1[nH]c(C)c(-c2nc3cc(C(=O)c4ccccc4)ccc3[nH]2)c1C` [Compound 14, N-(Methoxy)-4-(5-benzoylbenzimidazol-2-yl)-3,5-dimethylpyrrole-2-carboxamide], for which the IC50 in data set [1] is 355 nM.

For `Cc1[nH]c(C(=O)Nc2ccc3[nH]ccc3c2)c(C)c1-c1nc2cc(C(=O)c3ccccc3)ccc2[nH]1` [Compound 28, N-(Indole-5-yl)-4-(5-benzoylbenzimidazol-2-yl)-3,5-dimethylpyrrole-2-carboxamide], in data set [1], the IC50 is 73 nM.

For `Cc1[nH]c(C(=O)N2CCC(C(=O)NCCCN(C)C)CC2)c(C)c1-c1nc2cc(C(=O)c3ccccc3)ccc2[nH]1` [Compound 48, N-(3-Dimethylaminopropyl)-1-((4-(5-benzoylbenzimidazol-2-yl)-3,5-dimethylpyrrol-2-yl)-carbonyl)piperidine-4-carboxamide], the IC50 in data set [1] was 124 nM.

For the molecule `O=C(c1ccccc1)c1ccc2[nH]c(-c3ccc(P(=O)(O)O)o3)nc2c1` [Comparative Example 3, 5-Benzophenone-2-(2-phosphono-5-furanyl)benzimidazole dihydrate, reference compound], the IC50 in data set [1] is 29300 nM.

Turning to `Cc1[nH]c(C(=O)NCCc2ccccn2)c(C)c1-c1nc2cc(C(=O)c3ccccc3)ccc2[nH]1` [Compound 34, N-(2-(2-Pyridyl)ethyl)-4-(5-benzoylbenzimidazol-2-yl)-3,5-dimethylpyrrole-2-carboxamide], the IC50 in data set [1] came to 72 nM.

With `COC(=O)CNC(=O)c1[nH]c(C)c(-c2nc3cc(C(=O)c4ccccc4)ccc3[nH]2)c1C` [Compound 20, N-(1-Methoxycarbonylmethyl)-4-(5-benzoylbenzimidazol-2-yl)-3,5-dimethylpyrrole-2-carboxamide], the IC50 in data set [1] came to 871 nM.

Take `Cc1[nH]c(C(=O)Nc2ccc3c(c2)OCO3)c(C)c1-c1nc2cc(C(=O)c3ccccc3)ccc2[nH]1` [Compound 29, N-(3,4-Methylenedioxyphenyl-1-yl)-4-(5-benzoylbenzimidazol-2-yl)-3,5-dimethylpyrrole-2-carboxamide]: the IC50 in data set [1] was 53 nM.

The molecule `O=C(c1ccccc1)c1ccc2[nH]c(-c3ccc(P(=O)(O)O)o3)nc2c1` (hydrate or solvate) [Comparative Example 3, 5-Benzophenone-2-(2-phosphono-5-furanyl)benzimidazole dihydrate] registered a melting point of 224 to 229 °C.

`Cc1[nH]c(C(=O)NCC(=O)O)c(C)c1-c1nc2cc(C(=O)c3ccccc3)ccc2[nH]1` [Compound 22, N-(1-Carboxymethyl)-4-(5-benzoylbenzimidazol-2-yl)-3,5-dimethylpyrrole-2-carboxamide]: in data set [1], the IC50 came to 829 nM.

Consider `Cc1[nH]c(C(=O)N(C)O)c(C)c1-c1nc2cc(C(=O)c3ccccc3)ccc2[nH]1` [Compound 65, (N-Hydroxy-N-methyl)-4-(5-benzoylbenzimidazol-2-yl)-3,5-dimethylpyrrole-2-carboxamide], for which, in data set [1], the IC50 is 124 nM.

In the case of `Cc1[nH]c(C(=O)N2CCC(C(=O)NCC3CCCCC3)CC2)c(C)c1-c1nc2cc(C(=O)c3ccccc3)ccc2[nH]1` [Compound 50, N-Cyclohexylmethyl-1-((4-(5-benzoylbenzimidazol-2-yl)-3,5-dimethylpyrrol-2-yl)-carbonyl)piperidine-4-carboxamide], the IC50 in data set [1] worked out at 843 nM.

Turning to `Cc1oc(C(N)=O)c(C)c1-c1nc2cc(Oc3ccccc3)ccc2[nH]1` [Compound 76, 4-(5-Phenoxybenzimidazole-2-yl)-3,5-dimethylfuran-2-carboxamide], in data set [1], the IC50 came out at 109 nM.

For the molecule `Cc1[nH]c(C(=O)Nc2ccc3c(c2)OCCO3)c(C)c1-c1nc2cc(C(=O)c3ccccc3)ccc2[nH]1` [Compound 32, N-(3,4-Ethylenedioxyphenyl)-4-(5-benzoylbenzimidazol-2-yl)-3,5-dimethylpyrrole-2-carboxamide], in data set [1], the IC50 came out at 124 nM.

On to `Cc1[nH]c(C(=O)NCCc2ccccn2)c(C)c1-c1nc2cc(Oc3ccccc3)ccc2[nH]1` [Compound 72, N-(2-(2-Pyridyl)ethyl)-4-(5-phenoxybenzimidazole-2-yl)-3,5-dimethylpyrrole-2-carboxamide], for which the IC50 in data set [1] is 209 nM.

Regarding `Cc1[nH]c(C(=O)NCc2ccc3c(c2)OCO3)c(C)c1-c1nc2cc(C(=O)c3ccccc3)ccc2[nH]1` [Compound 37, N-(3,4-Methylenedioxyphenylmethyl)-4-(5-benzoylbenzimidazol-2-yl)-3,5-dimethylpyrrole-2-carboxamide], the IC50 in data set [1] was 213 nM.

As for `CONC(=O)c1[nH]c(C)c(-c2nc3cc(Oc4ccccc4)ccc3[nH]2)c1C` [Compound 73, N-(Methoxy)-4-(5-phenoxybenzimidazole-2-yl)-3,5-dimethylpyrrole-2-carboxamide], the IC50 in data set [1] is 240 nM.

For the molecule `Cc1[nH]c(C(=O)Nc2ccc3c(c2)CCO3)c(C)c1-c1nc2cc(C(=O)c3ccccc3)ccc2[nH]1` [Compound 30, N-(2,3-Dihydrobenzofuran-5-yl)-4-(5-benzoylbenzimidazol-2-yl)-3,5-dimethylpyrrole-2-carboxamide], the IC50 in data set [1] stood at 113 nM.

For `CC(=O)NCCNC(=O)c1[nH]c(C)c(-c2nc3cc(C(=O)c4ccccc4)ccc3[nH]2)c1C` [Compound 18, N-(2-Acetamidoethyl)-4-(5-benzoylbenzimidazol-2-yl)-3,5-dimethylpyrrole-2-carboxamide], in data set [1], the IC50 worked out at 80 nM.

For the molecule `Cc1[nH]c(C(=O)NCCN2CCCC2)c(C)c1-c1nc2cc(C(=O)c3ccccc3)ccc2[nH]1` [Compound 23, N-(2-Pyrrolidine-1-yl-ethyl)-4-(5-benzoylbenzimidazol-2-yl)-3,5-dimethylpyrrole-2-carboxamide], in data set [1], the IC50 amounted to 223 nM.
